Results from patent US4342780A, “Method of depleting endogenous monoamines” (Merrell-Toraude et Cie, priority 1981, dated 1982).

Tests used:
AADC = target: T1, AADC (Sus scrofa, UniProt P80041); experiment: In vitro AADC inhibition: time of 90% inactivation (14CO2 trapping, DL-[1-14C]-dopa substrate); format: biochemical, hog; set-up: key to RATING: ++++: The relative activities of the compounds are rated by the given number of "plus" signs; +++: The relative activities of the compounds are rated by the given number of "plus" signs; 0-+: The relative activities of the compounds are rated by the given number of "plus" signs; settings: CONC. 10 μM
T1 sequence (P80041 1-486): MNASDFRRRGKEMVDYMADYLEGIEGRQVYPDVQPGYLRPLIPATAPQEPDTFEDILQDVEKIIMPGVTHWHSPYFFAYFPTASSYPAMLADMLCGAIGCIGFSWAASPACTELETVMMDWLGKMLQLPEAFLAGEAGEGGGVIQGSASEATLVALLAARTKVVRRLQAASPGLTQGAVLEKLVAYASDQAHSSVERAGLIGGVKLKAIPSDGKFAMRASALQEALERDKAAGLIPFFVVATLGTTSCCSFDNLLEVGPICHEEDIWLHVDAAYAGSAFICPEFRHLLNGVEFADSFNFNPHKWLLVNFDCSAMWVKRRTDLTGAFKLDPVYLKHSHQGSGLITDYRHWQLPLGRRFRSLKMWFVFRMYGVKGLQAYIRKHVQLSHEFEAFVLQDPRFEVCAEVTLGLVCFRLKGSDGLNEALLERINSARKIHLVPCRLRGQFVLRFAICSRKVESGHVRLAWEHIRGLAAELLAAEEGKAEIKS
Protocol: AADC can be purified from hog kidney by the general method of J. Christenson et al. Archs. Biochem. Biophys., 141, 356 (1970) and G. Lancaster et al., Can. J. Biochem., 50, 791 (1972), and the specific activity of the enzyme is determined by the ^14 CO2 trapping method using DL-[1-^14 C]-dopa as the substrate (see Christenson et al.). One unit of activity is defined as the total amount of enzyme which produces 1 n mol of CO2 per minute, with DL-[1-^14 C]-dopa as substrate.
To 100 μl of 50 mM-phosphate buffer pH 7.4 containing 100 mM-mercapto-ethanol are added 5 μl of an aqueous solution containing the test compound at the desired concentration and 50 μl of an aqueous solution containing 2 units of AADC. The mixture is incubated at 37° C. and 20 μl aliquots are removed at various times. The AADC activity remaining in each aliquot is measured by the CO2 trapping method of Christenson.
The relative activities of the compounds are rated by the given number of "plus" signs.

[1] = system: catecholamine content (norepinephrine, dopamine); experiment: Catecholamine content in organs of rats after oral administration once daily for 15 days (Table III); format: in vivo, rats (Sprague-Dawley); settings: 24 h after 15th dose, vs control; for % CHANGE Brain Dopamine: * not significant
Protocol: The test animals (e.g. mice or rats) are given the test compound in a suitable vehicle, either orally or by injection, each day over the period of time desired. The animals are kept on a constant time cycle, and body weights are measured daily. The animals are sacrificed by decapitation 12 to 24 hours after receiving the last dose of the test compound. Control animals receive the vehicle alone.
Immediately after death, the organs (brain, heart, and kidney) are removed and homogenized either in 50 ml phosphate buffer pH 6.8 for AADC determination or in ice-cold 0.4 M HClO4 containing 0.05% (w/v) EDTA and 0.1% (w/v) sodium bisulfite for catecholamine determination. AADC activity is determined by the ^14 CO2 trapping method of J. Christenson, supra (see Example 14) using DL-[1-^14 C]-dopa as the substrate. Catecholamines are determined by centrifuging the homogenate, adding the supernatant to alumina buffered to pH 8.0-8.4 to adsorb the catecholamines, re-extracting the catecholamines from the alumina with 0.2 M HClO4 and determining the catecholamines in the extracts using known procedures, such as by reversed-phase ion-pair HPLC with electrochemical detection.
Table III gives the results obtained by testing particular compounds of Formula I in rats (Sprague-Dawley) after oral administration of the test compound once daily for 15 days. AADC activity was not determined.

[2] = system: dopamine, noradrenalin and 5-hydroxytryptamine content; experiment: Effect on catecholamines and 5-HT in brain regions of the rat 24 hours post-dose (Table IV); format: in vivo, Male Sprague-Dawley rats; settings: 100 mg/kg i.p., ± S.E.M.
Protocol: The following example illustrates the effect of 2-amino-2-fluoromethyl-3-(3,4-dihydroxyphenyl)propionic acid on catecholamines and 5-HT in the brain.
Male Sprague-Dawley rats (200-300 g) from Charles River, France are housed in groups having free access to food and water. The animals are maintained on a 12 hour light-dark cycle at an ambient temperature of 23° C. The compound 2-amino-2-fluoromethyl-3-(3,4-dihydroxyphenyl)propionic acid is dissolved in 0.9% saline solution and administered as a single dose of 100 mg/kg, i.p. The animals are sacrificed 24 hours later and the brain is dissected on a chilled glass plate into six regions: the striatum, hypothalmus, olfactory tubercles, frontal cortex, cerebellum and brain stem. The tissues are weighed and homogenized in 600 microliters of ice-cold 0.4 Normal HClO4 reagent. The homogenate is centrifuged and dopamine, noradrenalin and 5-hydroxytryptamine are determined by reversed-phase ion-pair high pressure liquid chromatography using electrochemical detection.

[3] = system: dopamine, noradrenaline and serotonin content; experiment: Effect of repeated administration on catecholamine and serotonin content of the mouse brain (Table V); format: in vivo, Male albino mice; settings: 5 × 100 mg/kg i.p. every 12 hours
Protocol: The following example illustrates the effect of repeated administration of 2-amino-2-fluoromethyl-3(3,4-dihydroxyphenyl)propionic acid in the brain.
Male albino mice (25-30 g) from Charles River, France and dosed i.p. with 100 mg/kg of 2-amino-2-fluoromethyl-3-(3,4-dihydroxyphenyl)propionic acid every 12 hours for 5 doses. Saline solution is used as a control. The mice are sacrificed and the catecholamines, dopamine and noradrenaline, and serotonin (5-hydroxytryptamine) are determined by reverse-phase ion-pair high pressure liquid chromatography using electrochemical detection.

[4] = 5 mg/kg oral once daily 15 days
[5] = 10 mg/kg oral once daily 15 days
[6] = 15 mg/kg oral once daily 15 days
[7] = 20 mg/kg oral once daily 15 days

`NC(CF)(Cc1ccc(O)c(O)c1)C(=O)O` (centres unmarked) [3,4-diOH-phenyl, 2-Amino-2-fluoromethyl-3-(3,4-dihydroxyphenyl)propionic acid] was tested, and the “TIME OF 90% INACTIVATION” value (AADC; pH 7.4, 37° C.) was 1 to 2 min, the RATING (AADC; relative activity) was “++++” and the “% CHANGE Brain Norepinephrine” value [1, 4] was -25%. For the same molecule, the “% CHANGE Heart Norepinephrine” value [1, 4] was -56%, the “% CHANGE Brain Dopamine” value [1, 4] was -2% and the “% CHANGE Brain Norepinephrine” value [1, 5] was -47%. The “% CHANGE Heart Norepinephrine” value [1, 5] was -67%, the “% CHANGE Brain Dopamine” value [1, 5] was -8% and the “% CHANGE Brain Norepinephrine” value [1, 6] was -51%. For the same molecule, the “% CHANGE Heart Norepinephrine” value [1, 6] was -68%, the “% CHANGE Brain Dopamine” value [1, 6] was -6% and the “% CHANGE Brain Norepinephrine” value [1, 7] was -49%. The “% CHANGE Heart Norepinephrine” value [1, 7] was -72%, the “% CHANGE Brain Dopamine” value [1, 7] was -10% and the “5-Hydroxytriptamine, Cerebellum” value ([2]; control 30 ± 3, p < 0.01) was 11 ± 3 ng/g. The “Dopamine, Brain Stem” value ([2]; control 37 ± 9) was 13 ± 4 ng/g, the “Noradrenaline, Striatum” value ([2]; control 47 ± 13) was 46 ± 24 ng/g and the “Noradrenaline, Cerebellum” value ([2]; control 137 ± 1, p < 0.001) was 17 ± 3 ng/g. For the same molecule, the “Noradrenaline, Olfactory Tubercles” value ([2]; control 360 ± 32, p < 0.01) was 126 ± 29 ng/g, the “5-Hydroxytriptamine, Frontal Cortex” value ([2]; control 365 ± 23, p < 0.001) was 19 ± 7 ng/g and the “Dopamine, Hypothalamus” value ([2]; control 399 ± 23) was 280 ± 69 ng/g. For the same molecule, the “Noradrenaline, Brain Stem” value ([2]; control 439 ± 47, p < 0.01) was 143 ± 9 ng/g, the “5-Hydroxytriptamine, Striatum” value ([2]; control 591 ± 47, p < 0.001) was 50 ± 16 ng/g and the “5-Hydroxytriptamine, Brain Stem” value ([2]; control 620 ± 35, p < 0.01) was 136 ± 50 ng/g. The “5-Hydroxytriptamine, Olfactory Tubercles” value ([2]; control 699 ± 72, p < 0.01) was 87 ± 31 ng/g, the “5-Hydroxytriptamine, Hypothalamus” value ([2]; control 1162 ± 306, p < 0.05) was 199 ± 44 ng/g and the “Noradrenaline, Hypothalamus” value ([2]; control 1419 ± 107, p < 0.01) was 631 ± 37 ng/g. The “Dopamine, Olfactory Tubercles” value ([2]; control 1954 ± 62, p < 0.001) was 403 ± 44 ng/g, the “Dopamine, Striatum” value ([2]; control 7342 ± 357, p < 0.001) was 1466 ± 156 ng/g and the “% Reduction Dopamine (brain)” value ([3]; vs saline) was -97%. The “% Reduction Noradrenaline (brain)” value ([3]; vs saline) was -94%, the “% Reduction Serotonin (brain)” value ([3]; vs saline) was -83% and the “Noradrenaline content of the brain” value ([3]; ± S.E.M., saline 310 ± 15) was 19.6 ± 3 ng/g. For the same molecule, the “Dopamine content of the brain” value ([3]; ± S.E.M., saline 722 ± 47) was 18.6 ± 2 ng/g and the “Serotonin content of the brain” value ([3]; ± S.E.M., saline 1685 ± 29) was 282 ± 25 ng/g.
